Laboratory results from PMC10451034, “Highly Efficient Photosensitizers with Molecular Vibrational Torsion for Cancer Photodynamic Therapy” (ACS Central Science, 2023).

What was measured:
[1] = test system: human mammary carcinoma (MCF7); assay: MTT cytotoxicity assay, MCF7; assay type: cell-based; conditions: light or radiation study, MCF7, 660 nm irradiation 12 J/cm^2
Protocol: (§1) DMEM medium was replaced with saline to prevent false positive interference. Then the cells were exposed to different following treatments: 1) cells incubated with PBS; 2) cells incubated with PBS under 660 nm irradiation (20 mW/cm2, 10 min); 3) cells incubated with QTCy7-R; 4) cells incubated with QTCy7-R under 660 nm irradiation (20 mW/cm2, 10 min). After being different treated, the cells were stained with Calcein-AM and Propidium Iodide (PI) according to the manufacture instruction. Then the confocal fluorescence imaging was carried out and recorded with a 10 × objective lens.
(§2) Cytotoxicity was tested by the reduction of methyl thiazolyl tetrazolium to formazan by succinic acid dehydrogenase in the mitochondria of living cells (MTT assay). […] The MTT solution was carefully removed and 100 μL DMSO was added to dissolve formazan, and the absorbance of each well was measured by a multifunctional microplate reader at 570 nm and 630 nm. […]
(§3) Where “OD” represent the absorbance at 570 nm and 630 nm, “ps” and “control” represent experimental groups and control groups, respectively. […]
(§4) And the fluorescence signals were monitored at different post -injection time by a NightOWL II LB983 small animal in vivo imaging system (German). […]

[2] = test system: murine mammary carcinoma cells (4T1); assay: MTT cytotoxicity assay, 4T1; assay type: cell-based; conditions: Mus musculus, light or radiation study; 4T1, 660 nm irradiation 12 J/cm^2
Protocol: as §1, §2, §3, §4

[3] = test system: HepG2 cells; assay: Intracellular ROS detection with DCFH-DA; assay type: cell-based, human; conditions: after 660 nm light irradiation
Protocol: In order to explore the mechanism of cellular structure destruction caused by QTCy7-R, intracellular ROS generation was investigated by DCFH-DA reagent. […] Ulteriorly, cell destruction caused by ROS generation was assessed by Calcein-AM/propidium iodide (PI)-mediated fluorescence imaging (Figures 9c and S21). […]
medium (DMEM, Invitrogen) with 10 % fetal bovine serum (Invitrogen) and 1% penicillinstreptomycin. All cells were treated at 37 °C with the humidified atmosphere containing 5% CO2 and 95% air. Before conducting cell imaging experiments, all types of cells were maintained on 35 mm glass-bottom cell dishes for 24 h.
(§5) Confocal fluorescence imaging
(§6) After culturing the cells in 35 mm glass-bottom cell dishes for 24 h, the DMEM medium was replaced with saline, then QTCy7-R was added (3 μM). The confocal fluorescence imaging was carried out and images were recorded. (λex = 640 nm, λem = 680-780 nm). […] After fluorescence imaging, colocalization coefficient was analyzed and recorded. […]
(§7) fluorescence signal (JC-1 monomer). […]
(§8) 2,7-dichlorofluorescein diacetate (DCFH-DA) Detection Kit was chosen to validate the intracellular ROS generation. […] Then the cells were exposed under NIR irradiation, after which the confocal fluorescence imaging was performed . […]

[4] = test system: HepG2 cells; assay: Mitochondrial membrane potential detection by JC-1 staining; assay type: cell-based, human; conditions: 660 nm irradiation (6 J/cm^2)
Protocol: Next, in order to verify the disruption effect on cell structural integrity of the ^1O2 generation by QTCy7-R under irradiation, JC-1 staining imaging was conducted to monitor the mitochondria membrane potential. […] On the other hand, cell membrane damage caused by the photooxidation of QTCy7-Ac and QTCy7-CHO could be confirmed by a visualized observation. […] Furthermore, the lactate dehydrogenase (LDH) content in cell culture medium was measured to characterize the extent of cell membrane damage.[49] […]
medium (DMEM, Invitrogen) with 10 % fetal bovine serum (Invitrogen) and 1% penicillinstreptomycin. All cells were treated at 37 °C with the humidified atmosphere containing 5% CO2 and 95% air. […]
as §5
as §6, with “recorded.” for “recorded. (λex = 640 nm, λem = 680-780 nm).”
as §7, §8

SMILES | IC50 [1] | IC50 [2] | intracellular ROS generation (DCFH-DA fluorescence) [3] | mitochondrial membrane potential change [4]
CCOC(=O)C1=C/C(=C\C=C2/Sc3ccccc3N2CC)C(=O)C(/C=C/c2sc3ccccc3[n+]2CC)=C1 [QTCy7-Ac] | ~0.6 µM | ~0.5 µM | stronger fluorescence signal | 
CCN1/C(=C/C=C2\C=C(C)C=C(/C=C/c3sc4ccccc4[n+]3CC)C2=O)Sc2ccccc21 [QTCy7-Me] |  |  |  | severe mitochondrial depolarization
CCN1/C(=C/C=C2\C=C(c3ccccc3)C=C(/C=C/c3sc4ccccc4[n+]3CC)C2=O)Sc2ccccc21 [QTCy7-Ph] |  |  | stronger fluorescence signal | severe mitochondrial depolarization
